# Data reported in patent publication US7442680B2, “Inotropic and diuretic effects of GLP-1 and GLP-1 agonists” (Amylin Pharmaceuticals, Inc., priority 1998, dated 2008).
# Read-outs that look alike come from different tables or passages of the source. Where no end group is shown, it is not given here.
# Experiments:
# [1] = test system: Harlan Sprague Dawley rats; experiment: Diuretic effects of GLP-1 or exendin in anesthetized rats (urine flow, sodium excretion, urinary potassium); assay type: in vivo, rat; details: intravenous bolus
# Description: In Vivo Studies in Anesthetized rats: Male, Harlan Sprague Dawley rats were housed at 23±1° C. in a 12:12 hour light:dark cycle (experiments being performed during the light cycle) and were fed and watered ad libitum (Diet LM-485, Teklad, Madison, Wis.). Animals weighing 325-375 gms were fasted for ˜20 hours prior to experimentation.
# Surgical preparation: The preparation used here was as described in Young et al., (Drug Dev Res. 37:231-248, 1996), but modified by the addition of unilateral ureteral cannulation. Anesthesia was induced with 5% halothane, maintained with 2% halothane during surgery and with 0.7 to 1% thereafter. […] Colonic temperature was measured and controlled using a thermistor probe/controller (Model 73A, YSI, Yellow Springs, Ohio) and a heated operating table. Signals for mean arterial pressure were periodically sampled at 1 Hz with 12 bit precision (DataTranslation DT2801A) and recorded (Labtech Notebook).
# Observations are expressed as the percent of baseline, defined as the mean of measurements made in the 30 min prior to starting peptide or vehicle infusion. Data are expressed as mean±SEM. n=5-6.
# Measurements: Samples of arterial blood (160 μl) were collected periodically and samples of urine were collected every 15 min. […] Unilateral urine flow was measured by weighing the 15-minute output of the cannulated ureter. […]
# [2] = test system: Harlan Sprague Dawley rats; experiment: Arterial blood pressure and dP/dt in conscious rats by telemetry; assay type: in vivo, rat; details: single intraperitoneal injection
# From the text: Insertion of Transducers: Male, Harlan Sprague Dawley rats were anesthetized with halothane and the abdominal aorta exposed after laparotomy. According to procedures detailed in the “Pressure Telemetry” manual from Data Sciences Inc., pressure transducer/transmitters were secured in place on the abdominal wall with the catheter tip in the abdominal aorta ˜2 mm above bifurcation. Following closure, the animals then recovered to allow at least 7 days of stable recordings. Baseline data were collected during the 7+days after surgery.
# Measurement of blood pressure and dP/dt: After obtaining a stable baseline, rats received an intraperitoneal (ip) injection of GLP-1, exendin or vehicle alone (NaCl). The transmitted signals were recorded via telemetry and stored on a personal computer. Rate of pressure change, dP/dt, was calculated by software provided by Data Sciences.
# GLP-1: Animals received a single intraperitoneal (ip) injection of saline or GLP-1 (100 μl), n=7-8.
# [3] = cited from earlier work
# [4] = administered through the jugular vein; cited from earlier work
substance,measurement,setting,value
His Ala Glu Gly Thr Phe Thr Ser Asp Val Ser Ser Tyr Leu Glu Gly Gln Ala Ala Lys Glu Phe Ile Ala Trp Leu Val Lys Gly Arg-NH2 (HAEGTFTSDVSSYLEGQAAKEFIAWLVKGR-NH2; listed as Homo sapiens) [GLP-1],sodium excretion,[1],increased
same,cardiac contractility (dP/dt),[2],increase
same,mean arterial pressure,[2],increase
same,diuretic effect,[3]; intracerebroventricular administration,"diuretic, antidypsogenic effect"
same,diuretic effect,"[3]; peripheral, intraperitoneal injection",did not have this effect
same,systolic and diastolic blood pressure and heart rate,[4],increase
